Measured values as given in patent publication US20120129842A1, “BISTHIAZOLE INHIBITORS OF PRO-MATRIX METALLOPROTEINASE ACTIVATION” (priority 2010, published 2012).
Structures can show the parent of a compound that is named as a salt. Each block holds one compound with its values, some of them ahead of it.

What was measured:
[1] = molecular target: T1, full-length proMMP9(1-707) (SEQ ID NO:1) (Homo sapiens, UniProt P14780, R574P); test: proMMP9/MMP3 P126 Activation Assay; assay type: biochemical; conditions: 20 nM proMMP9, 20 nM MMP3, 80 min 37° C.
T1 construct: made in house; host or cells: HEK293 (proMMP9, secreted); E. coli (MMP3)
Description: The reaction volume was 50 μL. […] Reactivity of residual MMP3 towards P-126 substrate was minimal under these conditions.

[2] = molecular target: T2, proMMP9(20-445;ΔFnII) (SEQ ID NO:6) (Homo sapiens, UniProt P14780, DEL216-390); test: ThermoFluor binding assay with proMMP9(20-445;ΔFnII); conditions: pH 7.0
T2 construct: start methionine (N); made in house; host or cells: E. coli BL21(DE3) RIL
T2 sequence (P14780 with tags, fused parts or gaps DEL216-390): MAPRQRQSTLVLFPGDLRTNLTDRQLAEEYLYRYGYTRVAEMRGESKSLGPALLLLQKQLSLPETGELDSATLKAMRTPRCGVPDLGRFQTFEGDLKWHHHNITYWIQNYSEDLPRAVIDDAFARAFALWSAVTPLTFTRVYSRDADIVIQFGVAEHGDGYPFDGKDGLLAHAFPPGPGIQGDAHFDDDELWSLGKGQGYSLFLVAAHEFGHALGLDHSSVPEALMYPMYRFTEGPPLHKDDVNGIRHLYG
Description: (§1) The ThermoFluor® (TF) assay is a 384-well plate-based binding assay that measures thermal stability of proteins (Biomol Screen 2001, 6, 429-40; Biochemistry 2005, 44, 5258-66). The experiments were carried out using instruments available from Johnson & Johnson Pharmaceutical Research & Development, LLC. TF dye used in all experiments was […] (1,8-ANS) (Invitrogen: A-47).
(§2) Compounds were arranged in a pre-dispensed plate (Greiner Bio-one: 781280), wherein compounds were serially diluted in 100% DMSO across 11 columns within a series. Columns 12 and 24 were used as DMSO reference and contained no compound. For multiple compound concentration-response experiments, the compound aliquots ([…]) were robotically predispensed directly into black 384-well polypropylene PCR microplates (Abgene: TF-0384/k) using a Cartesian Hummingbird liquid handler (DigiLab, Holliston, Mass.). Following compound dispense, protein and dye solutions were added to achieve the final assay volume of 3 μL. The assay solutions were overlayed with 1 μL of silicone oil (Fluka, type DC 200: 85411) to prevent evaporation.
(§3) Assay plates were robotically loaded onto a thermostatically controlled PCR-type thermal block and then heated from 40 to 90° C. at a ramp-rate of 1° C./min for all experiments. Fluorescence was measured by continuous illumination with UV light (Hamamatsu LC6) supplied via fiber optics and filtered through a band-pass filter (380-400 nm; >6 OD cutoff). Fluorescence emission of the entire 384-well plate was detected by measuring light intensity using a CCD camera (Sensys, Roper Scientific) filtered to detect 500±25 nm, resulting in simultaneous and independent readings of all 384 wells. A single image with 20-sec exposure time was collected at each temperature, and the sum of the pixel intensity in a given area of the assay plate was recorded vs temperature and fit to standard equations to yield the Tm (J Biomol Screen 2001, 6, 429-40).
(§4) Thermodynamic parameters necessary for fitting compound binding for each proMMP were estimated by differential scanning calorimetry (DSC) and from ThermoFluor® data. The heat capacity of unfolding for each protein was estimated from the molecular weight and from ThermoFluor® dosing data.
The protein sample preparations included a desalting buffer exchange step via a PD-10 gravity column (GE Healthcare). The desalting buffer exchange was performed prior to diluting the protein to the final assay concentration of 2.8 μM proMMP9(20-445;ΔFnII) (SEQ ID NO:6). The concentration of proMMP9(20-445;ΔFnII) (SEQ ID NO:6) was determined spectrophotometrically based on a calculated extinction coefficient of ε280=39880 M^−cm^−1, a calculated molecular weight of 28.2 kDa, and calculated pI of 5.5. ThermoFluor® reference conditions were define as follows: 80 μg/mL (2.8 μM) proMMP9(20-445;ΔFnII) (SEQ ID NO:6), 50 μM 1,8-ANS, pH 7.0 Buffer (50 mM HEPES pH 7.0, 100 mM NaCl, 0.001% Tween-20, 2.5 mM MgCl2, 300 μM CaCl2). The thermodynamic parameters for proMMP9(20-445;ΔFnII) (SEQ ID NO:6) are as follows: Tm (° C.)=72 (+/−0.1), ΔUH(Tm) (cal mol^−1)=160000(+/−5000), ΔUS(Tm) (cal mol^−1 K^−1)=434, ΔUCp (cal mol^−1 K^−)=2400.

[3] = molecular target: T3, proMMP9(67-444;ΔFnII) (SEQ ID NO:5) (Homo sapiens, UniProt P14780, DEL216-390); test: ThermoFluor binding assay with proMMP9(67-444;ΔFnII); conditions: pH 7.0
T3 construct: start methionine (N); made in house; host or cells: E. coli BL21(DE3) RIL
T3 sequence (P14780 with tags, fused parts or gaps DEL216-390): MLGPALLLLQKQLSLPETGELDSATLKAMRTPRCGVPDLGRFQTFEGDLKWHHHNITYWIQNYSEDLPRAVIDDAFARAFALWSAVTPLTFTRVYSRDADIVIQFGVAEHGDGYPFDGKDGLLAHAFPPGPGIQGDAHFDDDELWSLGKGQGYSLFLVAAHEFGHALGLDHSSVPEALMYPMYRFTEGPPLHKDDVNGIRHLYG
Description: as §1, §2, §3, §4
The protein sample preparations had to include a desalting buffer exchange step via a PD-10 gravity column (GE Healthcare). The desalting buffer exchange was performed prior to diluting the protein to the final assay concentration of 3.5 μM proMMP9(67-444;ΔFnII) (SEQ ID NO:5). The concentration of proMMP9(67-444;ΔFnII) (SEQ ID NO:5) was determined spectrophotometrically based on a calculated extinction coefficient of ε280=33900 M^−1cm^−1, a calculated molecular weight of 22.6 kDa, and calculated pI of 5.20. ThermoFluor® reference conditions were defined as follows: 80 μg/mL (3.5 μM) proMMP9(67-444;ΔFnII) (SEQ ID NO:5), 50 μM 1,8-ANS, pH 7.0 Buffer (50 mM HEPES pH 7.0, 100 mM NaCl, 0.001% Tween-20, 2.5 mM MgCl2, 300 μM CaCl2). The thermodynamic parameters for proMMP9(67-444;ΔFnII) (SEQ ID NO:5) are as follows: Tm (° C.)=63 (+/−0.1), ΔUH(Tm) (cal mol^−1)=105000(+/−5000), ΔUS(Tm) (cal mol^−1 K^−1)=[…], ΔUCp (cal mol^−1 K^−1)=2000.

T1 sequence (P14780 20-707 R574P): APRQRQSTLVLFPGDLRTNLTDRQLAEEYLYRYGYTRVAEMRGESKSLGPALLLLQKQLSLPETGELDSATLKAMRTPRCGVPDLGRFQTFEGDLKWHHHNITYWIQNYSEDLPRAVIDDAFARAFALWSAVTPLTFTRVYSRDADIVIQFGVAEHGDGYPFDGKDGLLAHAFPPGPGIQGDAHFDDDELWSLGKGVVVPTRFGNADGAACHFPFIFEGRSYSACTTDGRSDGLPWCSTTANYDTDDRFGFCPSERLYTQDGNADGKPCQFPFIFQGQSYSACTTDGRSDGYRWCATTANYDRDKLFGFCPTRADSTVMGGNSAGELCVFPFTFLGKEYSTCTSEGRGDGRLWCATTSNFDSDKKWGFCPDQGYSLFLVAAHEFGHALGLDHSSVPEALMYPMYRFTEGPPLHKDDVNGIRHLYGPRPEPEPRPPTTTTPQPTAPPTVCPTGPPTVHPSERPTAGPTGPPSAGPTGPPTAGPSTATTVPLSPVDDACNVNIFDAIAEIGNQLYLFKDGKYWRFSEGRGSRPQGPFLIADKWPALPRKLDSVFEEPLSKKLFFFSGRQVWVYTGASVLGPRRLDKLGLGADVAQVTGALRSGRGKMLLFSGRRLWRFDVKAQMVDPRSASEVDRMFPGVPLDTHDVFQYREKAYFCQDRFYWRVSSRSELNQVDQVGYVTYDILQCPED

Compound: COc1ccc(S(N)(=O)=O)cc1Nc1nc(-c2sc(N)nc2C)cs1 [Example 52, 3-(2′-Amino-4′-methyl-[4,5′]bithiazolyl-2-ylamino)-4-methoxy-benzenesulfonamide.HBr]
IC50 [1]: 1200 nM | Kd [2]: 870 nM | Kd [3]: 1600 nM

Compound: Cc1nc(C)c(-c2csc(Nc3cc(C(N)=O)ccc3OCC(F)(F)F)n2)s1 [Example 16, 3-(2′,4′-Dimethyl-[4,5′]bithiazolyl-2-ylamino)-4-(2,2,2-trifluoro-ethoxy)-benzamide]
IC50 [1]: 1300 nM | Kd [2]: 240 nM | Kd [3]: 2100 nM

Compound: Cc1nc(-c2ncc(C(F)(F)F)cc2N2CCCC2)sc1-c1csc(Nc2cc(C(N)=O)ccc2OC(C)C)n1 [Example 97, 4-Isopropoxy-3-[4′-methyl-2′-(3-pyrrolidin-1-yl-5-trifluoromethyl-pyridin-2-yl)-[4,5′]bithiazolyl-2-ylamino]-benzamide.TFA]
IC50 [1]: > 20000 nM | Kd [2]: 1900 nM | Kd [3]: > 95000 nM

Compound: COc1ccncc1Nc1nc(-c2sc(N3CCN(C)CC3)nc2C)cs1 [Example 155, N-(4-Methoxypyridin-3-yl)-4′-methyl-2′-(4-methylpiperazin-1-yl)-[4,5′-bithiazol]-2-amine.TFA]
IC50 [1]: 290 nM | Kd [2]: 1900 nM | Kd [3]: 340 nM

Compound: Cc1nc(N2CCCC2)sc1-c1csc(Nc2cc(C(N)=O)ccc2OC(C)C)n1 [Example 91, 4-Isopropoxy-3-(4′-methyl-2′-pyrrolidin-1-yl-[4,5′]bithiazolyl-2-ylamino)-benzamide.TFA]
IC50 [1]: 300 nM | Kd [2]: 140 nM | Kd [3]: 520 nM

Compound: Cc1nc(C)c(-c2csc(Nc3cccc4cccnc34)n2)s1 [Example 42, (2′,4′-Dimethyl-[4,5′]bithiazolyl-2-yl)-quinolin-8-yl-amine.TFA]
IC50 [1]: 9100 nM | Kd [2]: > 95000 nM | Kd [3]: 52000 nM

Compound: CCN(CC)S(=O)(=O)c1ccc(OC)c(Nc2nc(-c3sc(NC(C)=O)nc3C)cs2)c1 [Example 20, N-[2-(5-Diethylsulfamoyl-2-methoxy-phenylamino)-4′-methyl-[4,5]bithiazolyl-2′-yl]-acetamide]
Kd [2]: 21000 nM | Kd [3]: 6700 nM

Compound: COc1ccc(-c2cnn(C)c2)cc1Nc1nc(-c2sc(C)nc2C)cs1 [Example 136, (2′,4′-Dimethyl-[4,5′]bithiazolyl-2-yl)-[2-methoxy-5-(1-methyl-1H-pyrazol-4-yl)-phenyl]-amine]
IC50 [1]: ~6000 nM | Kd [2]: 38000 nM | Kd [3]: 8200 nM

Compound: CCOc1ccncc1Nc1nc(-c2sc(C3CCN(C)CC3)nc2C)cs1 [Example 158, N-(4-Ethoxypyridin-3-yl)-4′-methyl-2′-(1-methylpiperidin-4-yl)-[4,5′-bithiazol]-2-amine.TFA]
IC50 [1]: 290 nM

Compound: COc1cc(C(N)=O)ccc1Nc1nc(-c2sc(C)nc2C)cs1 [Example 35, 4-(2′,4′-Dimethyl-[4,5′]bithiazolyl-2-ylamino)-3-methoxy-benzamide]
Kd [2]: 14000 nM | Kd [3]: 3900 nM

Compound: Cc1nc(C2CCN(C)CC2)sc1-c1csc(Nc2cc(S(N)(=O)=O)ccc2OC(C)C)n1 [Example 156, 4-Isopropoxy-3-((4′-methyl-2′-(1-methylpiperidin-4-yl)-[4,5′-bithiazol]-2-yl)amino)benzenesulfonamide.TFA]
IC50 [1]: 67 nM

Compound: Cc1nc(C)c(-c2csc(Nc3cc(C(N)=O)ccc3CC(C)C)n2)s1 [Example 38, 3-(2′,4′-Dimethyl-[4,5′]bithiazolyl-2-ylamino)-4-isobutyl-benzamide.TFA]
IC50 [1]: 800 nM | Kd [2]: 550 nM

Compound: CC(=O)Nc1nc(C)c(-c2csc(Nc3cccc4c3OC(F)(F)O4)n2)s1 [Example 10, N-[2-(2,2-Difluoro-benzo[1,3]dioxol-4-ylamino)-4′-methyl-[4,5′]bithiazolyl-2′-yl]-acetamide]
IC50 [1]: 5600 nM

Compound: CC(=O)Nc1nc(C)c(-c2csc(Nc3cccc4cc(C)oc34)n2)s1 [Example 9, N-[4′-Methyl-2-(2-methyl-benzofuran-7-ylamino)-[4,5′]bithiazolyl-2′-yl]-acetamide]
IC50 [1]: 3600 nM

Now from value to compound:

IC50 [1]: 4700 nM | Kd [2]: 11000 nM | Kd [3]: 2200 nM
Compound: COc1ccc(-c2cc[nH]n2)cc1Nc1nc(-c2sc(C)nc2C)cs1 [Example 137, (2′,4′-Dimethyl-[4,5′]bithiazolyl-2-yl)-[2-methoxy-5-(1H-pyrazol-3-yl)-phenyl]-amine]

IC50 [1]: 410 nM | Kd [2]: 350 nM | Kd [3]: 450 nM
Compound: Cc1nc(N)sc1-c1csc(Nc2cc(C(=O)O)ccc2OC(C)C)n1 [Example 77, 3-(2′-Amino-4′-methyl-[4,5′]bithiazolyl-2-ylamino)-4-isopropoxy-benzoic acid.TFA]

IC50 [1]: 2600 nM | Kd [2]: 2200 nM | Kd [3]: 2000 nM
Compound: CCSc1ccc(S(N)(=O)=O)cc1Nc1nc(-c2sc(C)nc2C)cs1 [Example 154, 3-((2′,4′-Dimethyl-[4,5′-bithiazol]-2-yl)amino)-4-(ethylthio)benzenesulfonamide]

IC50 [1]: 410 nM | Kd [2]: 3700 nM | Kd [3]: 570 nM
Compound: COc1ccncc1Nc1nc(-c2sc(C)nc2C)cs1 [Example 151, N-(4-Methoxypyridin-3-yl)-2′,4′-dimethyl-[4,5′-bithiazol]-2-amine]

IC50 [1]: 5200 nM | Kd [2]: 1000 nM | Kd [3]: 2800 nM
Compound: COc1ccc(C(N)=O)cc1Nc1nc(-c2cnc(N)s2)cs1 [Example 27, 3-(2′-Amino-[4,5′]bithiazolyl-2-ylamino)-4-methoxy-benzamide.HBr]

IC50 [1]: 1400 nM | Kd [2]: 1600 nM | Kd [3]: 4500 nM
Compound: Cc1nc(C)c(-c2nc(Nc3cc(C(N)=O)ccc3OC(C)C)sc2C)s1 [Example 153, 4-Isopropoxy-3-((2′,4′,5-trimethyl-[4,5′-bithiazol]-2-yl)amino)benzamide]

Kd [2]: 6400 nM | Kd [3]: 1600 nM
Compound: COc1ccc(C(F)(F)F)cc1Nc1nc(-c2sc(N)nc2C)cs1 [Example 22, N^2-(2-Methoxy-5-trifluoromethyl-phenyl)-4′-methyl-[4,5′]bithiazolyl-2,2′-diamine.HBr]
